pIC50: −log10 of the molar value. Read-outs that look alike come from different tables or passages of the source.
Experiments:
[1] = biological target: recombinant human dual expressed Avi PRMT5/His-MEP50 protein (Homo sapiens (Human), UniProt O14744); experiment: HTRF binding assay in presence of MTA; conditions: 30 μM MTA
Protocol: The PRMT5 binding activity of compounds of the present invention was determined using an HTRF binding assay or SPR assay.
A recombinant human dual expressed Avi PRMT5/His-MEP50) protein (corresponding to amino acids for PRMT5 2-637, and 2-342 for MEP50 expressed in baculovirus) was incubated with target fragments in final buffer (25 mM ADA pH 7.2, 30 μM MTA, 1 mM TCEP, 50 mM NaCl, 0.002% Tween, 5 nM proprietary Tracer binding compound prepared in-house), overnight at 2-8° C. After overnight incubation the binding is monitored after the addition of 0.5 nM Anti-His-Tb (Cisbio) after 1 hr incubation at RT (˜20-24 hrs total binding time). The HTRF signal was measured using a Clariostar reader (BMG) excitation filter (Ex Tr), dichroic filter (LP TP) and emission filters (F 665-10 and F 620-10) manufacturer's instructions. The HTRF ratio was calculated using the formula: [emission 665/emission 620]*10000.

PRMT5/MEP50 complex = PRMT5/MEP50 complex (Homo sapiens (Human), UniProt O14744); experiment: PRMT5:MEP50 FlashPlate Assay; assay type: biochemical
Protocol: The PRMT5 inhibitory activity of compounds of the present invention was determined using a PRMT5:MEP50 FlashPlate Assay (Reaction Biology Corporation).
The assay uses purified human, PRMT5 enzyme to convert S-adenosyl-L-[methyl-^3H]methionine plus histone H4 L-arginine to S-adenosyl-L-homocysteine plus histone H4 [methyl-^3H]-L-arginine. The assay was carried out using Streptavidin-coated FlashPlates (Perkin Elmer), which contained a scintillant embedded in the plastic of the plate. The histone H4 peptide substrate was conjugated with biotin, which binds to the streptavidin-coated well of the plate, placing the H4 peptide in close proximity to the side well and the scintillant. The transfer of the tritiated methyl group from S-adenosyl-L-[methyl-^3H]methionine to the bound histone H4 peptide generated a radiolabeled histone H4, which was quantitated by measuring in a scintillation counter to determine the activity of PRMT5 enzyme in the presence and absence of compound. […] Briefly, compounds of the present invention were solubilized in 100% DMSO at a highest concentration of 10 mM. For IC, determinations, the initial starting concentration for the serial dilutions of each compound was 50 μM. Control samples lacking compound, PRMT5/MEP50 complex or various reaction components also were prepared and processed in parallel with compound test samples. SAH was used as a positive control for assay validation. To measure PRMT5 inhibitory activity, 3 nM PRMT5/MEP50 complex (Reaction Biology Corporation) was preincubated with test compound in assay buffer containing 40 nM histone H4 peptide (amino acids 1-15)-Biotin conjugate for 20 min at room temperature. The enzymatic reaction was initiated by adding 1 μM tritiated S-adenosyl methionine (final concentration) and the reaction is allowed to proceed for 20 min. The reaction was stopped and the amount of bound, tritiated H4 peptide in each sample was determined using a scintillation counter. The IC50 value for each compound was calculated from each 10-point dose-response curve for samples plus and minus MTA using GraphPad Prism software and the results for exemplary compounds of Formula (I) is shown in Table 9a.

[2] = read-out: IC50 + 2 μM MTA, histone H4 peptide, presence of 2 μM MTA
[3] = histone H4 peptide, absence of MTA, read-out: IC50
[4] = IC50 + 2 μM MTA, histone H4 peptide, presence of 2 μM MTA

PRMT5/MEP50 complex, sequence (O14744 whole entry): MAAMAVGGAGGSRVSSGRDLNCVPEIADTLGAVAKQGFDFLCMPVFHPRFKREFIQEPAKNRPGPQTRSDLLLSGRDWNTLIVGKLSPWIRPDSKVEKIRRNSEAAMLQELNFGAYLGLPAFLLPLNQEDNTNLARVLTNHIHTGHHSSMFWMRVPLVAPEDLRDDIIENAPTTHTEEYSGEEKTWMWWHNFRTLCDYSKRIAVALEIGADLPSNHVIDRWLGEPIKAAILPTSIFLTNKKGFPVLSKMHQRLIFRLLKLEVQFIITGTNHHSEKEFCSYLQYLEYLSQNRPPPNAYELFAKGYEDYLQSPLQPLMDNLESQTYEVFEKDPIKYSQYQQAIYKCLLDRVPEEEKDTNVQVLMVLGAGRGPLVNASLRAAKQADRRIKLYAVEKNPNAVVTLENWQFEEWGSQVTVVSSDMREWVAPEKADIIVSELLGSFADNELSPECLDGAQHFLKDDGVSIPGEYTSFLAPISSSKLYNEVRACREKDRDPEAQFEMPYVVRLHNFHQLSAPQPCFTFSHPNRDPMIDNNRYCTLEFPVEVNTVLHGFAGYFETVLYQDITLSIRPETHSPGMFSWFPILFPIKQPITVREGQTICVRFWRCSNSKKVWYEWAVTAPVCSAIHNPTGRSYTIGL
PRMT5/MEP50 complex, sequence (Q9BQA1 whole entry partner): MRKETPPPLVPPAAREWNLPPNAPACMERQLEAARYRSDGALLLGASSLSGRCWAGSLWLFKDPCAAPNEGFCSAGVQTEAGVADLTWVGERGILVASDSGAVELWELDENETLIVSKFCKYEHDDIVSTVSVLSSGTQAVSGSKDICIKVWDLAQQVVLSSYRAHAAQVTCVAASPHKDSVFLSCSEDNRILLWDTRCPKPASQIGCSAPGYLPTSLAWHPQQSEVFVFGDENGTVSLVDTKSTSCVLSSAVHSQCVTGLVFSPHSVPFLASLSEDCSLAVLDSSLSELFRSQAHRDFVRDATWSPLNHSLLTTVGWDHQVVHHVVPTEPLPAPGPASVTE
recombinant human dual expressed Avi PRMT5/His-MEP50 protein, sequence (O14744 2-637): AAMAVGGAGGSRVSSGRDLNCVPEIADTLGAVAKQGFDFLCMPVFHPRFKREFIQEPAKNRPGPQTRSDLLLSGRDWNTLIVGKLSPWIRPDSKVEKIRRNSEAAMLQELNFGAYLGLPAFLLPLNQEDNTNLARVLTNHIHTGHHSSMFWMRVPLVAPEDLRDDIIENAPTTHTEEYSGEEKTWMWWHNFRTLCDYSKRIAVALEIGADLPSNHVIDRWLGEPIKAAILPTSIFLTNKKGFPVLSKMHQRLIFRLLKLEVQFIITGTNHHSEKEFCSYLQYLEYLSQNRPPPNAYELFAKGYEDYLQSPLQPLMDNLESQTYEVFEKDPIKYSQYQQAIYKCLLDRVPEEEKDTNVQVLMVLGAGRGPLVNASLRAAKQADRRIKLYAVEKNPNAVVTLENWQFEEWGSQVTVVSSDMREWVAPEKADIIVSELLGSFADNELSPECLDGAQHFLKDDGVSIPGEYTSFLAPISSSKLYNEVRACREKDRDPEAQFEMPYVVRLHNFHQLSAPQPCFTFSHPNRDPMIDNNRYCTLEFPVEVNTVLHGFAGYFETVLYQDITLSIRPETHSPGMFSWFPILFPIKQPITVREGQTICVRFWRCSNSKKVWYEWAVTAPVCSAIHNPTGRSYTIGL
recombinant human dual expressed Avi PRMT5/His-MEP50 protein, sequence (Q9BQA1 2-342 partner): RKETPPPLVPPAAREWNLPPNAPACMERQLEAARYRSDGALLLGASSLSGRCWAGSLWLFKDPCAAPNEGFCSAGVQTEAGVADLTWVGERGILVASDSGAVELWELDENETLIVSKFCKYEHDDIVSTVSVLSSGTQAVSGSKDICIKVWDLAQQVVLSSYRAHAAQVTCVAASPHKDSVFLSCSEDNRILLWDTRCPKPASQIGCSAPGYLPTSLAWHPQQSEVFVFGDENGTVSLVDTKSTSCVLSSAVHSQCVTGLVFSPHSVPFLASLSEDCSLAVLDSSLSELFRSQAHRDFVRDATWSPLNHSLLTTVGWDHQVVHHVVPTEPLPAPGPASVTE

Cc1cc(N)nc2cc(Cc3ccccn3)cnc12 [Example 2-6, 4-methyl-7-(2-pyridylmethyl)-1,5-naphthyridin-2-amine]
pIC50 [1]: 5.55

Cc1cc(N)nc2cc(Cc3ccccc3)cnc12 [Example 2-1, 7-benzyl-4-methyl-1,5-naphthyridin-2-amine]
pIC50 [1]: 5.18

CC(=O)NCc1cc2nc(N)c(C)cc2n1C(C)=O [Example 15-7, N-((1-acetyl-5-amino-6-methyl-1H-pyrrolo[3,2-b]pyridin-2-yl)methyl)acetamide]
pIC50 [1]: 6.24

Cc1cc(N)nc2cc(Oc3ccncc3)cnc12 [Example 3-8, 4-methyl-7-(pyridin-4-yloxy)-1,5-naphtbyridin-2-amine]
pIC50 [1]: 4.08

Cc1cc(N)nc2cc(Oc3ccccc3Cl)cnc12 [Example 3-3, 7-(2-chlorophenoxy)-4-methyl-1,5-naphthyridin-2-amine]
pIC50 [1]: 5.32

Nc1ccc2c(n1)CN(c1cncc(Oc3ccccc3)c1)CC2 [Example 11-2, 7-(5-phenoxy-3-pyridyl)-6,8-dihydro-5H-1,7-naphthyridin-2-amine]
pIC50 [1]: 7.14
pIC50 (PRMT5/MEP50 complex; [2]): 5.24

Cc1cc(N)nc2cc(Cc3ccncc3)cnc12 [Example 2-8, 4-methyl-7-(4-pyridylmethyl)-1,5-naphthyridin-2-amine]
pIC50 [1]: 4.45

Cc1cc(N)nc2ccc(-c3cnsc3)nc12 [Example 4-6, 6-isothiazol-4-yl-4-methyl-1,5-naphthyridin-2-amine]
pIC50 [1]: 4.66

Cc1cc(N)nc2ccc(-c3ccc(F)cc3)nc12 [Example 4-9, 6-(4-fluorophenyl)-4-methyl-1,5-naphthyridin-2-amine]
pIC50 [1]: 4.85

Cc1cc(N)nc2ccc(-c3cnn(C)c3)nc12 [Example 4-5, 4-methyl-6-(1-methylpyrazol-4-yl)-1,5-naphthyridin-2-amine]
pIC50 [1]: 4.19

CC(=O)N1CCC(=O)n2c(cc3nc(N)c(C)cc32)C1 [Example 15-2, 11-acetyl-5-amino-4-methyl-1,6,11-triazatricyclo[7.5.0.0^2,7]tetradeca-2,4,6,8-tetraen-14-one]
pIC50 [1]: 5.61
pIC50 (PRMT5/MEP50 complex; [3]): < 3.52
pIC50 (PRMT5/MEP50 complex; [2]): 4.24

Cc1cc2[nH]c(N3CCN(C)C3=O)cc2nc1N [Example 13-5, 1-(5-amino-6-methyl-1H-pyrrolo[3,2-b]pyridin-2-yl)-3-methyl-imidazolidin-2-one]
pIC50 [1]: 4.50
pIC50 (PRMT5/MEP50 complex; [4]): 4.15
pIC50 (PRMT5/MEP50 complex; [3]): < 3.52

Cc1cc2[nH]c(N3CC(=O)NC3=O)cc2nc1N [Example 13-7, 1-(5-amino-6-methyl-1H-pyrrolo[3,2-b]pyridin-2-yl)imidazolidine-2,4-dione]
pIC50 [1]: 5.64
pIC50 (PRMT5/MEP50 complex; [4]): < 3.52
pIC50 (PRMT5/MEP50 complex; [3]): < 3.52

Cc1cc(N)nc2cc(-c3cccnn3)cnc12 [Example 1-4, 4-methyl-7-(pyridazin-3-yl)-1,5-naphthyridin-2-amine]
pIC50 [1]: 5.13

Cc1cc(N)nc2ccc(-c3ccsn3)nc12 [Example 4-10, 6-isothiazol-3-yl-4-methyl-1,5-naphthyridin-2-amine]
pIC50 [1]: 4.87

Cc1cc(N)nc2cc(Oc3ccccc3F)cnc12 [Example 3-2, 7-(2-fluorophenoxy)-4-methyl-1,5-naphthyridin-2-amine]
pIC50 [1]: 5.29

Cc1cc(N)nc2cc(-c3ccccn3)cnc12 [Example 1-2, 4-methyl-7-(pyridin-2-yl)-1,5-naphthyridin-2-amine]
pIC50 [1]: 4.09

Cc1cc2[nH]c(NC(=O)c3ccccc3)cc2nc1N [Example 12-2, N-(5-amino-6-methyl-1H-pyrrolo[3,2-b]pyridin-2-yl)benzamide]
pIC50 [1]: 5.26
pIC50 (PRMT5/MEP50 complex; [3]): 4.22
pIC50 (PRMT5/MEP50 complex; [2]): 4.35

Cc1ccccc1Cc1cnc2c(C)cc(N)nc2c1 [Example 2-5, 4-methyl-7-(2-methylbenzyl)-1,5-naphtbyridin-2-amine]
pIC50 [1]: 5.05

Cc1cc(N)nc2ccc(NC3CCC3)nc12 [Example 5-3, N^6-cyclobutyl-4-methyl-1,5-naphthyridine-2,6-diamine]
pIC50 [1]: 4.06

Cc1cc2[nH]c(N3CCNC3=O)cc2nc1N [Example 13-6, 1-(5-amino-6-methyl-1H-pyrrolo[3,2-b]pyridin-2-yl)imidazolidin-2-one]
pIC50 [1]: 5.17
pIC50 (PRMT5/MEP50 complex; [4]): 3.74
pIC50 (PRMT5/MEP50 complex; [3]): 4.22

Cn1ncc(N2CCc3cc(F)c(N)nc3C2)c1-c1ccccc1C#N [Example 11-4, 2-(4-(2-amino-3-fluoro-5,6-dihydro-1,7-naphthyridin-7(8H)-yl)-1-methyl-1H-pyrazol-5-yl)benzonitrile]
pIC50 [1]: 5.85
pIC50 (PRMT5/MEP50 complex; [3]): < 3.52
pIC50 (PRMT5/MEP50 complex; [2]): 4.10

Cc1cc(N)nc2cc(Oc3ccccc3)cnc12 [Example 3-1, 4-methyl-7-phenoxy-1,5-naphthyridin-2-amine]
pIC50 [1]: 5.05

Cc1cc(N)nc2ccc(-c3cccnc3)nc12 [Example 4-3, 4-methyl-6-(3-pyridyl)-1,5-naphthyridin-2-amine]
pIC50 [1]: 4.62

CNc1ccc2nc(N)cc(C)c2n1 [Example 5-1, N^2,8-dimethyl-1,5-naphthyridine-2,6-diamine]
pIC50 [1]: ≤ 4.00

Cc1cc(N)nc2cc(-c3ccsn3)cnc12 [Example 1-5, 7-(isothiazol-3-yl)-4-methyl-1,5-naphtbyridin-2-amine]
pIC50 [1]: 4.26

Cc1cc(N)nc2cc(-c3cncs3)cnc12 [Example 1-6, 4-methyl-7-(thiazol-5-yl)-1,5-naphthyridin-2-amine]
pIC50 [1]: 4.29

Nc1ccc2cc(Cl)ncc2n1 [Example 6-1, 6-chloro-1,7-naphthyridin-2-amine]
pIC50 [1]: ≤ 4.00

Cc1ccccc1Oc1cnc2c(C)cc(N)nc2c1 [Example 3-5, 4-methyl-7-(2-methylphenoxy)-1,5-naphtbyridin-2-amine]
pIC50 [1]: 4.40

Cc1cc(N)nc2cc(-c3cccnc3)cnc12 [Example 1-3, 4-methyl-7-(pyridin-3-yl)-1,5-paphthyridin-2-amine]
pIC50 [1]: 5.68

Cc1cc(N)nc2cc(Oc3ccccc3C#N)cnc12 [Example 3-4, 2-((6-amino-8-methyl-1,5-naphthyridin-3-yl)oxy)benzonitrile]
pIC50 [1]: 4.47

Cc1cc(N)nc2cc(Cc3cscn3)cnc12 [Example 2-10, 4-methyl-7-(thiazol-4-ylmethyl)-1,5-naphthyridin-2-amine]
pIC50 [1]: 5.67

Cc1cc(N)nc2cc(-c3cnn(C)c3)cnc12 [Example 1-7, 4-methyl-7-(1-methyl-1H-pyrazol-4-yl)-1,5-naphthyridin-2-amine]
pIC50 [1]: 5.10

Cc1cc(N)nc2ccc(-c3cncs3)nc12 [Example 4-4, 4-methyl-6-thiazol-5-yl-1,5-naphthyridin-2-amine]
pIC50 [1]: 4.53

Cc1cc(N)nc2cc(-c3ccccc3)cnc12 [Example 1-1, 4-methyl-7-phenyl-1,5-naphthyridin-2-amine]
pIC50 [1]: 4.76

C#Cc1c(CNC(=O)c2ccccc2)[nH]c2cc(C)c(N)nc12 [Example 15-4, N-((5-amino-3-ethynyl-6-methyl-1H-pyrrolo[3,2-b]pyridin-2-yl)methyl)benzamide]
pIC50 [1]: 4.77

Cc1cc2c(cc(CNC(=O)c3ccccc3)n2C)nc1N [Example 15-3, N-[(5-amino-1,6-dimethyl-pyrrolo[3,2-b]pyridin-2-yl)methyl]benzamide]
pIC50 [1]: 6.86

Cn1cc(N2CCc3cc(F)c(N)nc3C2)cn1 [Example 11-3, 3-fluoro-7-(1-methyl-1H-pyrazol-4-yl)-5,6,7,8-tetrahydro-1,7-naphthyridin-2-amine]
pIC50 [1]: ≤ 4.00

Cc1cc(N)nc2ccc(-c3ccccn3)nc12 [Example 4-2, 4-methyl-6-(2-pyridyl)-1,5-naphthyridin-2-amine]
pIC50 [1]: 4.86

Cc1cc(N)nc2cc(Oc3ccccn3)cnc12 [Example 3-6, 4-methyl-7-(pyridin-2-yloxy)-1,5-naphthyridin-2-amine]
pIC50 [1]: 4.39

Nc1ccc2c(n1)CN(c1cccnc1)CC2 [Example 11-1, 7-(3-pyridyl)-6,8-dihydro-5H-1,7-naphthyridin-2-amine]
pIC50 [1]: 5.43
